Active and inactive are the calls of the source.
Legend:
Mus musculus = organism: Mus musculus; assay: Immunostimulatory activity in mouse DN32.D3 NKT hybridoma cells assessed as IL-2 production after 16 hrs by ELISA; format: functional
Splenocyte [1] = assay: Immunostimulatory activity in mouse splenocytes assessed as IFNgamma production at 8 ng/ml after 72 hrs by ELISA; format: functional, cell-based
Splenocyte [2] = assay: Immunostimulatory activity in mouse splenocytes assessed as IL4 production at 8 ng/ml after 72 hrs by ELISA; format: functional, cell-based

Measured: Activity

CCCCCCCCCCCCCCCCCCCCCCCCCC(=O)N[C@@H](CO[C@H]1O[C@H](CO)[C@H](O)[C@H](O)[C@H]1O)[C@H](O)[C@H](O)CCCCCCCCCCCCCC
active: Mus musculus | Splenocyte [1] | Splenocyte [2]

CCCCCCCCCCCCCCCCCCCCCCCCCC(=O)N[C@@H](CO[C@H]1O[C@H](CO)[C@H](O)[C@H](O)[C@H]1O)[C@H](O)CCCCCCCCCCCCCCC
active: Mus musculus | Splenocyte [1] | Splenocyte [2]

CCCCCCCCCCCCCCCCCCCCCCCCCC(=O)N[C@@H](CO[C@H]1O[C@H](CO)[C@H](O)[C@H](O)[C@H]1O)C[C@H](O)CCCCCCCCCCCCCC
active: Mus musculus | Splenocyte [1] | Splenocyte [2]
